Laboratory results from patent publication US4201725A, “Secondary amines” (priority 1974, dated 1980).

Experiments:
[1] = test system: arterial pressure and nictitating membrane (norepinephrine); assay: Influence on peripheral noradrenergic phenomena (norepinephrine, anaesthetized cat); conditions: cat, i.v.
[2] = test system: cholinergic effects of tremorine; assay: Anti-tremorine test in vivo; design: species or system mice (male, OF1 strain)
Procedure: When injected into mice, tremorine produces peripheral effects i.e. weeping, sweating, salivation and diarrhoea and central effects i.e. tremor and akinesia. Such effects are due to an increase in the amount of intracerebral acetylcholine and serotonine.
[…] Thirty minutes later a dose of 10 mg/kg of tremorine was injected by intraperitoneal route and, at different times after this injection, note was taken of the cholinergic effects on each animal in accordance with the following scale:

electrocardiogram = assay: Effect on the electrocardiogram; assay type: in vivo; conditions: amantadine: 5 mg/kg injected, dog
[3] = test system: neuroleptic-induced catatonia; assay: Inhibition of neuroleptic (prochlorperazine)-induced catatonia (preventive); assay type: in vivo, rat (male, OFA strain)
Procedure: The blocking of dopaminergic receptors by neuroleptics in the extra-pyramidal system induces catatonia in the rat. Catatonia is differentiated from sedative properties by means of the test used hereabove for reserpine-induced catatonia. The same system of scoring was also employed in the present case.
An oral dose of the compound to be studied in aqueous solution was administered to batches of 10 male rats of the OFA strain weighing about 150 to 200 g.
Three hours after the injection of this latter compound, catatonia was measured. An identical trial was also carried out with control animals which received prochlorperazine but none of the compounds under study.
The scoring system used was that given hereabove for Table I.

in vivo = conditions: mouse, po
[4] = SPERBER et al., J. Amer. Chem. Soc., 71, 3352 (1949); cited from earlier work
[5] = SPERBER et al., J. Amer. Chem. Soc., 71, 3352 (1949); cited from earlier work; remark: listed apart in the source
[6] = test system: reserpine-induced catatonia; assay: Inhibition of reserpine-induced catatonia (preventive, oral compound 30 min before reserpine); assay type: in vivo, rat (male, OFA strain); conditions: for index of reserpine-induced catatonia (numerator of ratio): 0.031 m mol/kg oral, hydrochloride form
Procedure: After sufficient doses of reserpine have been administered to the rat, a series of symptoms occur, more particularly ptosis, catatonia and a drop in central temperature. These symptoms are caused by the depletion of the intragranular reserve pool of biogenetic amines at the synaptic terminals.
An oral dose of the compound to be studied in aqueous solution was administered to batches of 10 male rats of the OFA strain weighing about 150 to 200 g. Thirty minutes later a dose of 5 mg/kg of reserpine was given by intraperitoneal route. Three hours after the injection of reserpine, the animals were suspended by the four paws to a horizontally stretched wire fixed at 15 cm from the ground. The catatonia animals were those which maintained the position so given for at least 30 seconds. […] The maximum score was therefore 10 per batch. An identical trial was undertaken with control animals which received reserpine but none of the compounds being studied.

Tremor-inducing action = conditions: 0.031 m mol/kg oral, 30 min, hydrochloride form; for number of animals presenting tremors (denominator of ratio): batches of 10 rats

SMILES: NC12CC3CC(CC(C3)C1)C2 [Amantadine, 1-amino-adamantane, reference compound]
- effect on the nictitating membrane (in words) [1]: stimulates the contractile reactions of the nictitating membrane but does not potentiate the effects of the electric stimulation
- potentiation of norepinephrine / peripheral adrenergic effects (in words) [1]: potentiates exogenous norepinephrine from 1 mg/kg
- potentiation of norepinephrine / peripheral adrenergic effects (in words) ([1]; listed as amantadine): potentiates the peripheral adrenergic effects
- antitremorine properties (in words) ([2]; 5 mg/kg Compound 1, 40 mg/kg amantadine): devoid of antitremorine properties
- central cholinergic effects (normal and provoked tremor) ([2]; 40 mg/kg oral, identical to the peripheral score of 4): Identical results
- effect on the electrocardiogram (in words) (electrocardiogram): provokes cardiac arrhythmia due to ventricular extrasystoles

SMILES: CCCC(N)(CC)CCC [Compound 2, 1-Ethyl-1-n-propyl-n-butylamine]
- Inhibition of the neuroleptic-induced catatonia ([3]; 5 mg/kg oral): 1 (represents 20 to 30% inhibition of catatonia in comparison with the controls)
- selectivity ratio (in vivo): 30

SMILES: CCCC(C)(N)CC(C)CC (stereo not shown) [Compound 6, 1,3-Dimethyl-1-n-propyl-n-pentylamine]
- selectivity ratio (in vivo): > 25

SMILES: CCCCCC(C)(N)CCC (stereo not shown) [Compound 9, 1-Methyl-1-n-propyl-n-hexylamine]
- selectivity ratio (in vivo): 87

SMILES: CCCCC(N)(CCCC)CCCC [Compound 12, 1,1-Di-n-butyl-n-pentylamine]
- toxicity (in words) [4]: more toxic than the corresponding trialkylethylamines
- selectivity ratio (in vivo): 25
- spasmolytic activity (in words) [5]: less spasmolytic

SMILES: CCCC(CCC)(CCC)N1CCC1 [Compound 29, N,N-Trimethylene-1,1-di-n-propyl-n-butylamine]
- Inhibition of the neuroleptic-induced catatonia ([3]; 3 mg/kg oral): 2 (represents 50% inhibition of catatonia in comparison with the controls)
- Inhibition of the neuroleptic-induced catatonia ([3]; 6 mg/kg oral): 4 (represents 100% inhibition of catatonia in comparison with the controls)
- selectivity ratio (in vivo): 10.8
- Inhibition of reserpine-induced catatonia ([6]; 3 mg/kg oral): 3 (represents 70 to 80% inhibition of catatonia in comparison with the controls)
- Inhibition of reserpine-induced catatonia ([6]; 6 mg/kg oral): 4 (represents 100% inhibition of catatonia in comparison with the controls)

SMILES: CCCC(CCC)(NC)C(C)C [Compound 30, N-Methyl-1-n-propyl-1-isopropyl-n-butylamine]
- Inhibition of the neuroleptic-induced catatonia ([3]; 6 mg/kg oral): 3 (represents 70 to 80% inhibition of catatonia in comparison with the controls)
- selectivity ratio (in vivo): > 25
- Inhibition of reserpine-induced catatonia ([6]; 6 mg/kg oral): 4 (represents 100% inhibition of catatonia in comparison with the controls)
- index of reserpine-induced catatonia (numerator of ratio) [6]: 4 (represents 100% inhibition of catatonia in comparison with the controls)
- number of animals presenting tremors (denominator of ratio) (Tremor-inducing action): 3
- ratio of index of reserpine-induced catatonia inhibition to number of animals presenting tremors (Tremor-inducing action): 1.33

SMILES: C=CCC(CCC)(CCC)NC [Compound 32, N-Methyl-1-n-propyl-1-allyl-n-butylamine]
- Inhibition of the neuroleptic-induced catatonia ([3]; 5 mg/kg oral): 2 (represents 50% inhibition of catatonia in comparison with the controls)
- Inhibition of reserpine-induced catatonia ([6]; 5 mg/kg oral): 2 (represents 50% inhibition of catatonia in comparison with the controls)
- index of reserpine-induced catatonia (numerator of ratio) [6]: 3 (represents 70 to 80% inhibition of catatonia in comparison with the controls)
- number of animals presenting tremors (denominator of ratio) (Tremor-inducing action): 0
- ratio of index of reserpine-induced catatonia inhibition to number of animals presenting tremors (Tremor-inducing action): 3/0

SMILES: CCCC(CCC)(CCC)NCC [Compound 33, N-Ethyl-1,1-di-n-propyl-n-butylamine]
- Inhibition of the neuroleptic-induced catatonia ([3]; 6 mg/kg oral): 4 (represents 100% inhibition of catatonia in comparison with the controls)
- selectivity ratio (in vivo): 16.5
- Inhibition of reserpine-induced catatonia ([6]; 6 mg/kg oral): 2 (represents 50% inhibition of catatonia in comparison with the controls)

SMILES: CCCC(CCC)(CCC)NC(C)C [Compound 34, N-Isopropyl-1,1-di-n-propyl-n-butylamine]
- Inhibition of the neuroleptic-induced catatonia ([3]; 3 mg/kg oral): 2 (represents 50% inhibition of catatonia in comparison with the controls)
- Inhibition of the neuroleptic-induced catatonia ([3]; 6.5 mg/kg oral): 4 (represents 100% inhibition of catatonia in comparison with the controls)
- selectivity ratio (in vivo): 21.6
- Inhibition of reserpine-induced catatonia ([6]; 6.5 mg/kg oral): 2 (represents 50% inhibition of catatonia in comparison with the controls)
- Inhibition of reserpine-induced catatonia ([6]; 13 mg/kg oral): 4 (represents 100% inhibition of catatonia in comparison with the controls)

SMILES: C=CCNC(CCC)(CCC)CCC [Compound 35, N-Allyl-1,1-di-n-propyl-n-butylamine]
- Inhibition of the neuroleptic-induced catatonia ([3]; 6 mg/kg oral): 4 (represents 100% inhibition of catatonia in comparison with the controls)
- selectivity ratio (in vivo): 21
- Inhibition of reserpine-induced catatonia ([6]; 6 mg/kg oral): 2 (represents 50% inhibition of catatonia in comparison with the controls)

SMILES: C#CCNC(CCC)(CCC)CCC [Compound 36, N-Propargyl-1,1-di-n-propyl-n-butylamine]
- Inhibition of the neuroleptic-induced catatonia ([3]; 6 mg/kg oral): 4 (represents 100% inhibition of catatonia in comparison with the controls)
- selectivity ratio (in vivo): > 25
- Inhibition of reserpine-induced catatonia ([6]; 6 mg/kg oral): 1 (represents 20 to 30% inhibition of catatonia in comparison with the controls)
- index of reserpine-induced catatonia (numerator of ratio) [6]: 3 (represents 70 to 80% inhibition of catatonia in comparison with the controls)
- number of animals presenting tremors (denominator of ratio) (Tremor-inducing action): 5
- ratio of index of reserpine-induced catatonia inhibition to number of animals presenting tremors (Tremor-inducing action): 0.60

SMILES: CCCC(CCC)(CCC)N1CC1 [Compound 40, N,N-Ethylene-1,1-di-n-propyl-n-butylamine]
- Inhibition of the neuroleptic-induced catatonia ([3]; 6 mg/kg oral): 1 (represents 20 to 30% inhibition of catatonia in comparison with the controls)
- Inhibition of the neuroleptic-induced catatonia ([3]; 12 mg/kg oral): 3 (represents 70 to 80% inhibition of catatonia in comparison with the controls)
- selectivity ratio (in vivo): > 25
- Inhibition of reserpine-induced catatonia ([6]; 6 mg/kg oral): 2 (represents 50% inhibition of catatonia in comparison with the controls)

SMILES: C=NC(CCC)(CCC)CCC [Compound 41, N-Methylene-1,1-di-n-propyl-n-butylamine]
- Inhibition of the neuroleptic-induced catatonia ([3]; 5.5 mg/kg oral): 3 (represents 70 to 80% inhibition of catatonia in comparison with the controls)
- selectivity ratio (in vivo): 27
- Inhibition of reserpine-induced catatonia ([6]; 5.5 mg/kg oral): 4 (represents 100% inhibition of catatonia in comparison with the controls)

SMILES: CC=NC(CCC)(CCC)CCC [Compound 42, N-Ethylidene-1,1-di-n-propyl-n-butylamine]
- Inhibition of the neuroleptic-induced catatonia ([3]; 6 mg/kg oral): 2 (represents 50% inhibition of catatonia in comparison with the controls)
- selectivity ratio (in vivo): 20
- Inhibition of reserpine-induced catatonia ([6]; 6 mg/kg oral): 4 (represents 100% inhibition of catatonia in comparison with the controls)

SMILES: CCCC(CCC)(CCC)NCCO [Compound 43, N-(2-Hydroxyethyl)-1,1-di-n-propyl-n-butylamine]
- Inhibition of the neuroleptic-induced catatonia ([3]; 6.5 mg/kg oral): 1 (represents 20 to 30% inhibition of catatonia in comparison with the controls)
- selectivity ratio (in vivo): 23
- Inhibition of reserpine-induced catatonia ([6]; 13 mg/kg oral): 3 (represents 70 to 80% inhibition of catatonia in comparison with the controls)

SMILES: CCCC(CCC)(CCC)NCCCO [Compound 45, N-(3-Hydroxy-n-propyl)-1,1-di-n-propyl-n-butylamine]
- Inhibition of the neuroleptic-induced catatonia ([3]; 7 mg/kg oral): 2 (represents 50% inhibition of catatonia in comparison with the controls)
- Inhibition of reserpine-induced catatonia ([6]; 14 mg/kg oral): 2 (represents 50% inhibition of catatonia in comparison with the controls)

SMILES: CCCC(CCC)(CCC)N1CCOCC1 [Compound 46, N,N-(3-Oxapentamethylene)-1,1-di-n-propyl-n-butylamine]
- Inhibition of the neuroleptic-induced catatonia ([3]; 8 mg/kg oral): 2 (represents 50% inhibition of catatonia in comparison with the controls)
- selectivity ratio (in vivo): 31
- Inhibition of reserpine-induced catatonia ([6]; 8 mg/kg oral): 1 (represents 20 to 30% inhibition of catatonia in comparison with the controls)
